We go through 7 molecules from patent US4933354A, “2-pyrrolidone-5-carboxylic acid compounds useful for the treatment of mental disorders” (Kissei Pharmaceutical Co., Ltd., priority 1987, dated 1990).

SMILES strings stand for the structures. Some results are limits rather than exact numbers.

One data set has as its system ECS-induced amnesic mice. In words: One trial passive avoidance task by step-through test (ECS-induced amnesia). Format: in vivo, mice (male, dd-strain). The settings on record: oral, 1 μmole/mouse, 1 hr before training trial; test 24 hr after training. How it is done: Anti-amnesic effects of the compounds were determined by the following tests. Male mice of dd-strain, weighing 23-30 g, were employed for the experiment, and the test compounds were freshly dissolved in saline and administered orally at a dose of 1 μmole/mouse. (1) One trial passive avoidance task by step-through test A shuttle box composed of a light (7 cm high, 9 cm wide and 15 cm depth) and a dark (12 cm high, 13 cm wide and 15 cm depth) box; the former was lighted using […]-white light fluorescent bar lamp placed at the position of 40 cm from the floor and in the latter the stainless steel floor grids 2.5 mm in diameter were placed at intervals of 4 mm in order to give a foot shock. Both boxes were connected with a gate 3 cm in diameter. As the training trial, each animal was placed in the light box and a foot shock ([…]) was delivered through the floor grid immediately after the animal entered into the dark box, accordingly the animal learned a punishment for the entrance. […] Twenty-four hr after the training trial, the animal was placed again in the light box and step-through (ST) latency, time spent until the animal entered the dark box, was measured. […] The ST-latency on the test trial was measured up to 300 and 600 sec for control and amnesic group, respectively.
For `O=C1CCC(C(=O)OCc2ccc(Cl)cc2)N1` (centres unmarked) [Compound 1, p-Chlorobenzyl 2-pyrrolidone-5-carboxylate], the “ST-latency in ECS-induced amnesic mice” value is “prolonged the ST-latency in ECS-induced amnesic mice significantly”.

System in the next data set: not listed separately
In words: Acute toxicity. To be noted: mouse, in vivo; male SCL-ICR mice, single shot, lethality at 1 week; route not given. How it is done: The test compounds were administered to male mice of SCL-ICR-strain, 7 weeks age, at several dosage (single shot) and LD50, 50% lethal dose, was estimated from the number of lethal mice at 1 week past to the administration.
As to `O=C1CCC(C(=O)OCc2ccc(Cl)cc2)N1` (centres unmarked) [Compound 1, p-Chlorobenzyl 2-pyrrolidone-5-carboxylate], the LD50 (in general, the dose expected to kill half of the subjects tested) at 168 h is above 2590 mg/kg.
The same measure, in the same setting: as for `O=C1CCC(C(=O)OCc2ccccn2)N1` (centres unmarked) [Compound 2, 2-Pyridylmethyl 2-pyrrolidone-5-carboxylate], the figure is 1540 mg/kg; as for `O=C1CCC(C(=O)OCc2cccnc2)N1` (centres unmarked) [Compound 3, 3-Pyridylmethyl 2-pyrrolidone-5-carboxylate], above 2590 mg/kg; as for `O=C1CCC(C(=O)OCc2ccncc2)N1` (centres unmarked) [Compound 4, 4-Pyridylmethyl 2-pyrrolidone-5-carboxylate], above 2590 mg/kg.
`O=C1CCC(C(=O)OCCc2ccccn2)N1` (centres unmarked) [Compound 5, 2-(2-Pyridyl)ethyl 2-pyrrolidone-5-carboxylate] came in with an LD50 at 168 h above 2590 mg/kg.
The molecule `O=C1CCC(C(=O)OCCCc2ccccn2)N1` (centres unmarked) [Compound 6, 3-(2-Pyridyl)propyl 2-pyrrolidone-5-carboxylate] gave a 50% lethal dose (LD50) at 168 h below 1250 mg/kg.
On the same count and under the same terms, the figure for `O=C1CCC(C(=O)NCc2ccccn2)N1` (centres unmarked) [Compound 7, N-(2-Pyridylmethyl)-2-pyrrolidone-5-carboxamide] is above 2590 mg/kg.
